Laboratory results as given in paper PMC3577944 (Nature chemical biology, 2013).
Changes are numbered by the printed parent chain. Entries after “also recorded” stand apart in the source; their conditions may differ. No end group written: not given here.

How the values were obtained:
D381A 3MBT = target: T1, D381A 3MBT (Homo sapiens, UniProt Q96JM7, D381A); assay: ITC, domain 2 mutant; settings: domain 2 binding pocket mutant
T1 sequence (Q96JM7 225-555 D381A): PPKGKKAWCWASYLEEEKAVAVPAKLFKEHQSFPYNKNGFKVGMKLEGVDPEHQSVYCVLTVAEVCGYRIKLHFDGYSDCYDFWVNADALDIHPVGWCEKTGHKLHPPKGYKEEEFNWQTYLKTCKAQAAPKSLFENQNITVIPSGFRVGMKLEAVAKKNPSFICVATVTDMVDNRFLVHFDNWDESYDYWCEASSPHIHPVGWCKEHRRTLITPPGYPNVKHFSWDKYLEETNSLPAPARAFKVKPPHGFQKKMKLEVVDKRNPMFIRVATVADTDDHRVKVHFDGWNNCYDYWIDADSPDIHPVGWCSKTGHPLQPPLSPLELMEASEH

D274A 3MBT = target: T2, D274A 3MBT (Homo sapiens, UniProt Q96JM7, D274A); assay: ITC, domain 1 mutant; type: binding
T2 sequence (Q96JM7 225-555 D274A): T1 sequence (Q96JM7 225-555 D381A) with D50A, A157D

H277A 3MBT = target: T3, H277A 3MBT (Homo sapiens, UniProt Q96JM7, H277A); assay: ITC, H277A mutant; type: binding; settings: relative to wild-type
T3 sequence (Q96JM7 225-555 H277A): T1 sequence (Q96JM7 225-555 D381A) with H53A, A157D

[1] = tested on: G9a, EHMT1, SUV39H2, PRMT3, SETD7, SETD8, DNMT1, MLL, PRC2, PRMT5; assay: Histone methyltransferase selectivity, radioactive SAM methyl transfer; type: biochemical
[2] = tested on: Bromodomains (12 targets); assay: Bromodomain selectivity, differential scanning fluorimetry; type: binding; settings: at 10 µM versus 12 targets
[3] = tested on: Histone demethylases (15 targets); assay: Lysine demethylase selectivity, differential scanning fluorimetry; type: binding
hM1 = target: T4, hM1 (Homo sapiens, UniProt P11229); assay: M1 Ca2+ mobilization functional assay; type: cell-based
T4 sequence (P11229 1-460): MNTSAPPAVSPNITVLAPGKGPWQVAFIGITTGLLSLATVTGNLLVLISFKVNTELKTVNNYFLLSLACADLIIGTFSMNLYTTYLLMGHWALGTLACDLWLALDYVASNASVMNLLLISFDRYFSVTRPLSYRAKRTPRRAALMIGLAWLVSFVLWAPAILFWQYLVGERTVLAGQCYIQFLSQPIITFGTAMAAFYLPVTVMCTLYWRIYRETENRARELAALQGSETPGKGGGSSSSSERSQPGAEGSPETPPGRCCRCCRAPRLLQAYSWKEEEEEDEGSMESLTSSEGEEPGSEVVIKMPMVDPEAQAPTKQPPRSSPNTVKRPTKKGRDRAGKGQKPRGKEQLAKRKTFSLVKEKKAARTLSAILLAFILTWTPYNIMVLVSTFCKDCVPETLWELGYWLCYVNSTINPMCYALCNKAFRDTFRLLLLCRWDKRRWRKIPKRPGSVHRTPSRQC

hM2 = target: T5, hM2 (Homo sapiens, UniProt P08172); assay: M2 cAMP biosensor functional assay; type: cell-based
T5 sequence (P08172 1-466): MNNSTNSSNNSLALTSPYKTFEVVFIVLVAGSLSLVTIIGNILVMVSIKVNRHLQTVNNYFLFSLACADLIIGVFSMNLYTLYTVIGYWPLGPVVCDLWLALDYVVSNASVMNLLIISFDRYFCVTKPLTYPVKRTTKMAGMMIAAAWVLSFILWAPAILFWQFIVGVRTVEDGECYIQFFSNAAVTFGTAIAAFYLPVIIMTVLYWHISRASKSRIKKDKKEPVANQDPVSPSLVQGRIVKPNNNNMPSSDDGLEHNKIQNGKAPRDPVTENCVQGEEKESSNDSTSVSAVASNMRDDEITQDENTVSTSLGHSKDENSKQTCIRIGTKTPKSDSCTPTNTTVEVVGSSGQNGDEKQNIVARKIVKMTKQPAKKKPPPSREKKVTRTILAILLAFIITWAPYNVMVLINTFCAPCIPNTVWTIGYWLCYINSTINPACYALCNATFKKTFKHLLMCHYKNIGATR

HEK293T/17 cells = assay: CellTiter-Glo luminescent cell viability assay; type: cell-based, human; settings: up to 100 µM, 24 hours
[4] = target: T6, GFP-3MBT (L3MBTL3 MBT domains) in HEK293 cells (Homo sapiens, UniProt Q96JM7); assay: FRAP of GFP-3MBT; type: cell-based
T6 sequence (Q96JM7 200-530 isoform Q96JM7-2 limits assumed): T1 sequence (Q96JM7 225-555 D381A) with A157D

[5] = target: T7, GFP-FLMBT (full length L3MBTL3) (Homo sapiens, UniProt Q96JM7); assay: FRAP of GFP-FLMBT; type: cell-based; settings: lesser extent than GFP-3MBT
T7 sequence (Q96JM7 1-755 isoform Q96JM7-2): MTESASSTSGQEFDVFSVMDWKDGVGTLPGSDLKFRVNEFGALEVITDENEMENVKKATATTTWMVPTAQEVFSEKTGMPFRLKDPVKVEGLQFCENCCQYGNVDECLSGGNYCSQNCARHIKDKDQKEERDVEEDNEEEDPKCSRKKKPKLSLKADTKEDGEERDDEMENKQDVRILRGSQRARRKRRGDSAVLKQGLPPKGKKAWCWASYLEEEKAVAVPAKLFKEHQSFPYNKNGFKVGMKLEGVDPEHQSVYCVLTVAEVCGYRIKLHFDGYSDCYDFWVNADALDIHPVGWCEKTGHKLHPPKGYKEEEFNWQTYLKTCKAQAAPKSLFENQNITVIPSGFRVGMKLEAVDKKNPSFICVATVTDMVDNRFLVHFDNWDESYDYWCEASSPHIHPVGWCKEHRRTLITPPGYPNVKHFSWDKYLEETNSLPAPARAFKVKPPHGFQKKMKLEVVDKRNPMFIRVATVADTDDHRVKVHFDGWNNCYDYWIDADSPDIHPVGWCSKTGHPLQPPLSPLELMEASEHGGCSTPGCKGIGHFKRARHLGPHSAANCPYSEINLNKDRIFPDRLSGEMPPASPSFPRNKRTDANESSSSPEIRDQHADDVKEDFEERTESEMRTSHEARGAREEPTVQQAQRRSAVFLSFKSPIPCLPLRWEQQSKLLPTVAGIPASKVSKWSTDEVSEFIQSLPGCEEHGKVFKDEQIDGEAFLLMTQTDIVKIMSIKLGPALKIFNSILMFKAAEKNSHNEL

[6] = target: T8, GFP-FLMBT foci in 293 or U2OS cells (Homo sapiens, UniProt Q96JM7); assay: GFP-FLMBT nuclear foci formation; type: cell-based; settings: N-terminally tagged full length L3MBTL3
T8 sequence (Q96JM7 1-755 isoform Q96JM7-2): T7 sequence (Q96JM7 1-755 isoform Q96JM7-2)

[7] = target: T9, flag-3MBT / BCLAF1 interaction (Homo sapiens, UniProt Q96JM7); assay: Co-immunoprecipitation of BCLAF1 with flag-3MBT; type: cell-based; settings: 1 μM, 18 hours, HEK293 cells
T9 sequence (Q96JM7 225-555 limits assumed): T1 sequence (Q96JM7 225-555 D381A) with A157D

[8] = target: T10, flag-FLMBT / BCLAF1 interaction (Homo sapiens, UniProt Q96JM7); assay: Co-immunoprecipitation of BCLAF1 with flag-FLMBT; type: cell-based; settings: 1 μM, 18 hours, HEK293 cells
T10 sequence (Q96JM7 1-755 isoform Q96JM7-2): T7 sequence (Q96JM7 1-755 isoform Q96JM7-2)

L3MBTL3 (3MBT) [9] = target: T11, L3MBTL3 (3MBT) (Homo sapiens, UniProt Q96JM7); assay: H4K20me2 peptide pull-down competition; settings: increasing concentrations
T11 sequence (Q96JM7 168-555 limits assumed): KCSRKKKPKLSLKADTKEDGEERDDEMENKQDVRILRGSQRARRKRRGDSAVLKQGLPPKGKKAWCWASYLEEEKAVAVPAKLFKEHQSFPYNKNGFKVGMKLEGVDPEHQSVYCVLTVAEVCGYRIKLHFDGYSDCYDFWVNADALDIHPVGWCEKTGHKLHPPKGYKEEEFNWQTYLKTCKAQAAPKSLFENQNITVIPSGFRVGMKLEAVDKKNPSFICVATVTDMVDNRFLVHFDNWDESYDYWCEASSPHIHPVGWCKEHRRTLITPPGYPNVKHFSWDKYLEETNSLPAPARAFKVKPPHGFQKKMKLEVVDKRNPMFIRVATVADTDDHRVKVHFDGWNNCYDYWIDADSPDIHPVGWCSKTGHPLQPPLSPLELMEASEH

53BP1 = 53BP1 (Homo sapiens, UniProt Q12888); assay: H4K20me2 peptide pull-down competition; settings: increasing concentrations
L3MBTL3 (3MBT) [10] = target: T12, L3MBTL3 (3MBT) (Homo sapiens, UniProt Q96JM7); type: binding; settings: similar affinity to H4K20me histone peptides
T12 sequence (Q96JM7 225-555): T1 sequence (Q96JM7 225-555 D381A) with A157D

Chain of 53BP1 (Q12888 1459-1634): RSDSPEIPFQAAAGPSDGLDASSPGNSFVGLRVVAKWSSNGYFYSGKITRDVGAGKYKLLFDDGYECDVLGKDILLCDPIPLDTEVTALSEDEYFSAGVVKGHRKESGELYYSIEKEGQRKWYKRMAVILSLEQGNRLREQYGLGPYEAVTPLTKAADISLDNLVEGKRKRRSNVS

binding diminished relative to wildtype, D274A 3MBT (D274A 3MBT)	binding to H277A 3MBT by ITC, in words (H277A 3MBT)	activity against panel of histone methyltransferases, in words [1]	Tm shift, lysine demethylases [3] [°C]	agonist activity, M1 (hM1)	agonist activity, M2 (hM2)	EC50 [4] [nM]	mobility of GFP-FLMBT by FRAP, in words [5]	antagonism of L3MBTL3 (3MBT) H4K20me2 pull-down, in words (L3MBTL3 (3MBT) [9])	displacement of H4K20me2 from L3MBTL3 by AlphaScreen, in words (L3MBTL3 (3MBT) [10])	Compound	binding to D381A 3MBT by ITC, in words (D381A 3MBT)	Tm shift, bromodomains [2] [°C]	cytotoxicity (CellTiter-Glo cell viability) (HEK293T/17 cells)	effect on GFP-FLMBT foci formation, in words [6]	interaction between flag-3MBT and BCLAF1, in words [7]	interaction between flag-FLMBT and BCLAF1, in words [8]	antagonism of 53BP1 H4K20me2 pull-down, in words (53BP1)
about 30 fold	marked loss of affinity	inactive	< 0.5	no agonist activity	no agonist activity	50 to 100	found to increase	nanomolar potency		O=C(c1ccc(C(=O)N2CCC(N3CCCC3)CC2)c(Nc2ccccc2)c1)N1CCC(N2CCCC2)CC1 [UNC1215]	completely abolished; also recorded: completely abrogates binding	< 0.5	no observable level of cytotoxicity	relatively ineffective at inhibiting foci formation; also recorded: could no longer be disrupted	substantially reduced; also recorded: disrupts the interaction	reduced to a lesser extent; also recorded: reduces the interaction	much weaker affinity; also recorded: micromolar antagonism
									effectively displaces H4K20me2	BCLAF1 Kme peptide: K445me containing BCLAF1 peptide (residues 438-452) (YKSKVSLK(Me)GNRESDG)							
